Data reported in US20220117957A1, “TREATMENT METHOD FOR CORONAVIRUS INFECTION” (priority 2020, published 2022).

Columns and labels:
SARS-CoV-2 = assay type: in vivo; conditions: individuals infected with SARS-CoV-2 treated with Rifampin
[1] = organic solvents; water at acidic pH; cited from earlier work

For CO[C@H]1/C=C/O[C@@]2(C)Oc3c(C)c(O)c4c(O)c(c(/C=N/N5CCN(C)CC5)c(O)c4c3C2=O)NC(=O)/C(C)=C\C=C\[C@H](C)[C@H](O)[C@@H](C)[C@@H](O)[C@@H](C)[C@H](OC(C)=O)[C@@H]1C [Rifampin], the recovery times (SARS-CoV-2) is given as “much faster recovery times”, the severity of symptoms (SARS-CoV-2) is given as “less severe symptoms” and the solubility [1] is given as “soluble in organic solvents and in water at acidic pH”.
